Where two headings read alike, the source gives them in different places.
Columns and labels:
TNKS2 = TNKS2 (Homo sapiens (Human), UniProt Q9H2K2); experiment: Biochemical IC50 TNKS2; details: read-out: Biochemical IC50 TNKS2
Text: (§1) XLfit (idbs) was used to determine the IC50-values in inhibition experiments. The following formula was chosen to fit the data points (Langmuir Binding Isotherm): fit=((A+(B*x))+4(C−B)*(1−exp((−1*D)*x)))/D)), res=(y−fit)

HEK293 = experiment: Cellular IC50 HEK293; type: cell-based
Text: as §1

[1] = Homo sapiens, HEK293, HEK293; read-out: Cellular IC50 HEK293
[2] = Homo sapiens, HEK293, read-out: Cellular IC50 HEK293

TNKS2, sequence (Q9H2K2 whole entry): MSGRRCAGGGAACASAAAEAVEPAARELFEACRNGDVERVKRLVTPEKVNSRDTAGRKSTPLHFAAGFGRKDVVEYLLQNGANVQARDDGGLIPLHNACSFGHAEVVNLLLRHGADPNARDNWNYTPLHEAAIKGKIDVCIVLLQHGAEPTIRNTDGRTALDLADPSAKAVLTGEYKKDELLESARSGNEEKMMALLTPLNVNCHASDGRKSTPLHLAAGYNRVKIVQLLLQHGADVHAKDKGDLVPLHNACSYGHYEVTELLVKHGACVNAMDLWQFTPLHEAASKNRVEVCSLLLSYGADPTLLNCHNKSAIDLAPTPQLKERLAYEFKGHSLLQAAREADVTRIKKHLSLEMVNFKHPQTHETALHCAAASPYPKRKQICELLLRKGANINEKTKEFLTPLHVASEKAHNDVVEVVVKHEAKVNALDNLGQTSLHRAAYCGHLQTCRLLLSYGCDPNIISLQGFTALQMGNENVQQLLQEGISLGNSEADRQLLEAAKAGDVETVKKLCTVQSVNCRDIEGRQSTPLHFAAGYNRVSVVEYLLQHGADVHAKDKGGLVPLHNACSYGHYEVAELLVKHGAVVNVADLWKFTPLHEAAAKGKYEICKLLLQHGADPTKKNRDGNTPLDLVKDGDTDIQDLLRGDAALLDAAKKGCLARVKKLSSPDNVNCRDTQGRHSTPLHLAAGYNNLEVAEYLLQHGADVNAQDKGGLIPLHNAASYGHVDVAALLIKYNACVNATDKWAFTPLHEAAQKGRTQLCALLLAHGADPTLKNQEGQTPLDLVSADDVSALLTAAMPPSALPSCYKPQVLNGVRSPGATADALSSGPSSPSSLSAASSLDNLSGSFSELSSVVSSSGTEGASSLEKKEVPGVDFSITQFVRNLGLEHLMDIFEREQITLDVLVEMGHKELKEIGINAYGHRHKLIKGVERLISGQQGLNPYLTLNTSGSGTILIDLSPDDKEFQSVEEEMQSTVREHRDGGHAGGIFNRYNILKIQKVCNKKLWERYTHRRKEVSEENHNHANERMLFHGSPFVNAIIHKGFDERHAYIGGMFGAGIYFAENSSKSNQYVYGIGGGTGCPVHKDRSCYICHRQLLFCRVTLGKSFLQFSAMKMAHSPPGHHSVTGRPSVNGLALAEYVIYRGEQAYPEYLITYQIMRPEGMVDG

Row | SMILES | IC50 (TNKS2) [nM] | IC50 (HEK293; [1]) [nM] | IC50 (HEK293; [2]) [nM] | IC50 (HEK293; Homo sapiens, HEK293; read-out: Cellular IC50 HEK293) [nM]
1 | CCOc1ccc(-c2nnc([C@H]3C[C@H](NC(=O)c4ccccn4)C3)n2-c2ccccc2Cl)nc1 [Example 134, N-((1S,3r)-3-(4-(2-chlorophenyl)-5-(5-ethoxypyridin-2-yl)-4H-1,2,4-triazol-3-yl)cyclobutyl)picolinamide] | 3.7 | 4.5 |  | 
2 | O=C(N[C@H]1C[C@H](c2nnc(-c3nccs3)n2-c2ccccc2Cl)C1)c1ccccn1 [Example 42, N-((1S,3r)-3-(4-(2-chlorophenyl)-5-(thiazol-2-yl)-4H-1,2,4-triazol-3-yl)cyclobutyl)picolinamide] | 5.9 | 20 |  | 
3 | CCOc1ccc(-c2nnc(C34CC(NC(=O)c5ccnc6cc(F)cnc56)(C3)C4)n2-c2ccccc2)nc1 [Example 65, N-(3-(5-(5-ethoxypyridin-2-yl)-4-phenyl-4H-1,2,4-triazol-3-yl)bicyclo[1.1.1]pentan-1-yl)-7-fluoro-1,5-naphthyridine-4-carboxamide] | 1.4 | 10 |  | 
4 | O=C(N[C@H]1C[C@H](c2nnc(-c3nccs3)n2-c2ccc(Cl)s2)C1)c1ccccn1 [Example 79, N-((1r,3r)-3-(4-(5-chlorothiophen-2-yl)-5-(thiazol-2-yl)-4H-1,2,4-triazol-3-yl)cyclobutyl)picolinamide] | 27 | 140 |  | 
5 | O=C(N[C@H]1C[C@H](c2nnc(-c3ccncn3)n2-c2ccccc2Cl)C1)c1cccc2cccnc12 [Example 4, N-((1S,3r)-3-(4-(2-chlorophenyl)-5-(pyrimidin-4-yl)-4H-1,2,4-triazol-3-yl)cyclobutyl)quinoline-8-carboxamide] | 5.4 | 1 |  | 
6 | CCOc1ccc(-c2nnc([C@H]3C[C@H](NC(=O)c4ccnc5cccnc45)C3)n2-c2cccnc2)nc1 [Example 162, N-((1r,3r)-3-(5-(5-ethoxypyridin-2-yl)-4-(pyridin-3-yl)-4H-1,2,4-triazol-3-yl)cyclobutyl)-1,5-naphthyridine-4-carboxamide] | 4.5 |  | 16 | 
7 | CCOc1ccc(-c2nnc([C@H]3C[C@H](NC(=O)c4ccnc5cc(F)cnc45)C3)n2-c2ccccc2F)nc1 [Example 57, N-((1S,3r)-3-(5-(5-ethoxypyridin-2-yl)-4-(2-fluorophenyl)-4H-1,2,4-triazol-3-yl)cyclobutyl)-7-fluoro-1,5-naphthyridine-4-carboxamide] | 2 |  |  | 0.17
8 | CCOc1ccc(-c2nnc([C@H]3C[C@H](NC(=O)c4ccccc4)C3)n2-c2ccccc2)nc1 [Example 72, N-((1r,3r)-3-(5-(5-ethoxypyridin-2-yl)-4-phenyl-4H-1,2,4-triazol-3-yl)cyclobutyl)benzamide] | 14 | 30 |  | 
9 | Cc1cccc(-c2nnc([C@H]3C[C@H](NC(=O)c4cccc5nccnc45)C3)n2-c2ccccc2F)n1 [Example 201, N-((1S,3r)-3-(4-(2-fluorophenyl)-5-(6-methylpyridin-2-yl)-4H-1,2,4-triazol-3-yl)cyclobutyl)quinoxaline-5-carboxamide] | 1.7 |  | 1.5 | 
10 | O=C(N[C@H]1C[C@H](c2nnc(-c3nccs3)n2-c2cccnc2)C1)c1ccccn1 [Example 109, N-((1r,3r)-3-(4-(pyridin-3-yl)-5-(thiazol-2-yl)-4H-1,2,4-triazol-3-yl)cyclobutyl)picolinamide] | 800 | 4700 |  | 
11 | CCOc1ccc(-c2nnc([C@H]3C[C@H](NC(=O)c4nc5ccccc5[nH]4)C3)n2-c2ccc(C)s2)nc1 [Example 143, N-((1r,3r)-3-(5-(5-ethoxypyridin-2-yl)-4-(5-methylthiophen-2-yl)-4H-1,2,4-triazol-3-yl)cyclobutyl)-1H-benzo[d]imidazole-2-carboxamide] | 11 | 94 |  | 
12 | O=C(N[C@H]1C[C@H](c2nnc(-c3nccs3)n2-c2ccccc2)C1)c1ccnc2cccnc12 [Example 33, N-((1r,3r)-3-(4-phenyl-5-(thiazol-2-yl)-4H-1,2,4-triazol-3-yl)cyclobutyl)-1,5-naphthyridine-4-carboxamide] | 3.1 | 4.3 |  | 
13 | CCOc1ccc(C(=O)N[C@H]2C[C@H](c3nnc(-c4ccc(OCC)cn4)n3-c3ccccc3F)C2)nc1 [Example 58, 5-ethoxy-N-((1S,3r)-3-(5-(5-ethoxypyridin-2-yl)-4-(2-fluorophenyl)-4H-1,2,4-triazol-3-yl)cyclobutyl)picolinamide] | 2 | 10 |  | 
